According to patent publication US20250353873A1, “COMPOUNDS AND METHODS FOR MODULATING APOE EXPRESSION” (Ionis Pharmaceuticals, Inc., priority 2024, published 2025):
Strand notation (5' to 3'): a small letter for the sugar, then the base; units joined by * are phosphorothioate-linked, units joined directly phosphodiester-linked; [ ] holds rarer units or linkages, { } end groups; capitals alone tell only the bases. [PN] = cyclic guanidine phosphoramidate internucleoside linkage; [ms] = mesyl phosphoramidate linkage; e = 2'-O-(2-methoxyethyl) (MOE); k = constrained ethyl (cEt); [5mC] = 5-methylcytosine; d = 2'-deoxy (DNA)

Tests used:
human APOE RNA [1] = experiment: Duration of action study in APOE C57BL/6NTac-Apoeem7250 knock-in mice (Example 16); assay type: in vivo; settings: 300 μg ICV
Protocol: Modified oligonucleotides described above were tested in the APOE C57BL/6NTac-Apoeem7250 knock-in mouse model described above.
APOE C57BL/6NTac-Apoeem7250 knock-in mice were divided into groups of 2-4 mice each. Each mouse received a single intracerebroventricular (ICV) bolus of 300 μg of modified oligonucleotide. A group of 2-4 mice received a single ICV bolus with PBS as a negative control.
Mice were sacrificed at various timepoints as indicated in the table below and RNA was extracted from cortical brain tissue and spinal cord for quantitative real-time RT-PCR analysis of RNA expression of APOE using primer probe set RTS3073 (described herein above). APOE RNA levels were normalized to mouse Ppia. Mouse Ppia was amplified using primer probe set m_cyclo24 (described herein above). Results are presented as percent human APOE RNA relative to the amount of human APOE RNA in PBS treated animals, (% control). Each experiment is identified in separate tables below.

human APOE RNA [2] = experiment: Activity in APOE C57BL/6NTac-Apoeem7250 knock-in mice, single ICV bolus, 8 weeks (Example 11); assay type: in vivo; settings: single ICV bolus 300 μg, 8 weeks post treatment, normalized to mouse Ppia
Summary of the method: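 Cortical and spinal cord human APOE RNA quantified by RT-qPCR 8 weeks after a single 300 μg ICV dose in knock-in mice, Ppia-normalized. Values are percent of levels in PBS-treated animals.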

human APOE RNA [3] = experiment: Activity in APOE C57BL/6NTac-Apoeem7250 knock-in mice, single ICV bolus, 4 weeks (Example 10); assay type: in vivo; settings: single ICV bolus 300 μg, 4 weeks post treatment, normalized to mouse Ppia
Summary of the method: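 Human APOE RNA, quantified by real-time RT-PCR with RTS3073 and normalized to mouse Ppia, was read in cortical brain and spinal cord 4 weeks post dosing. Dosing was a single ICV bolus of 300 μg per knock-in mouse; values are % of PBS-treated animals.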

human APOE RNA [4] = experiment: Dose-dependent inhibition of human APOE RNA in HepG2 cells, electroporation, 50,000 cells per well, RT-PCR normalized to GAPDH (Example 4, Tables 8-10); assay type: cell-based; settings: HepG2 cells, electroporation, Table 8; for APOE RNA (% UTC) 5 nM / APOE RNA (% UTC) 13 nM / APOE RNA (% UTC) 33 nM / APOE RNA (% UTC) 82 nM / APOE RNA (% UTC) 205 nM / APOE RNA (% UTC) 512 nM / IC50: 24-hour treatment; for APOE RNA (% UTC) 1,280 nM: 24-hour treatment, 1,280 nM; for APOE RNA (% UTC) 3,200 nM: 24-hour treatment, 3,200 nM; for APOE RNA (% UTC) 8,000 nM: 24-hour treatment, 8,000 nM; for APOE RNA (% UTC) 20,000 nM: 24-hour treatment, 20,000 nM; for IC50: reduction of human APOE RNA
Summary of the method: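 Readout is percent APOE RNA versus untreated controls, measured by RT-PCR (primer probe set RTS3073) and normalized to human GAPDH. Modified oligonucleotides were delivered by electroporation at varying doses into HepG2 cells plated at 50,000 per well.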

human APOE RNA [5] = experiment: Activity in APOE C57BL/6NTac-Apoeem7250 knock-in mice, single ICV bolus, 16 weeks (Example 12); assay type: in vivo; settings: single ICV bolus 300 μg, 16 weeks post treatment, normalized to mouse Ppia
Summary of the method: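 A single 300 μg intracerebroventricular dose was given, with PBS-treated mice as reference; cortical and spinal cord tissue was taken 16 weeks later. RT-qPCR quantified human APOE RNA, Ppia-normalized, expressed relative to PBS animals (% control).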

human APOE RNA [6] = experiment: Activity in APOE C57BL/6NTac-Apoeem7250 knock-in mice, single ICV bolus, 20 weeks (Example 13); assay type: in vivo; settings: single ICV bolus 300 μg, 20 weeks post treatment, normalized to mouse Ppia
Summary of the method: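 Cortical and spinal cord RNA was assayed by real-time RT-PCR for human APOE, normalized to mouse Ppia and reported as percent of PBS controls. Tissue was taken twenty weeks after one 300 μg intracerebroventricular bolus in APOE knock-in mice, 4 per group.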

Q: What does the source list for “1721303: 6-10-4 MOE gapmer TTGGTGAATCTTTATTAAAC, linkages s[pn][pn][pn]oossssssssssoss (eT*eT[PN]eG[PN]eG[PN]eTeGdA*dA*dT*d[5mC]*dT*dT*dT*dA*dT*dT*eAeA*eA*e[5mC]) [compound 1721303]”?
A: APOE RNA (% control) Cortex (human APOE RNA [1]; 14 days post-dose): 36 % control; APOE RNA (% control) Cortex (human APOE RNA [1]; 112 days post-dose): 75 % control; APOE RNA (% control) Spinal Cord (human APOE RNA [1]; 14 days post-dose): 32 % control; APOE RNA (% control) Spinal Cord (human APOE RNA [1]; 112 days post-dose): 40 % control

Q: How did the “APOE RNA (% control) Cortex” value (human APOE RNA [1]; 14 days post-dose) turn out when “1721304: 6-10-4 MOE gapmer TTGGTGAATCTTTATTAAAC, linkages s[pn][pn][pn]oosssssszzssoss (eT*eT[PN]eG[PN]eG[PN]eTeGdA*dA*dT*d[5mC]*dT*dT*dT[ms]dA[ms]dT*dT*eAeA*eA*e[5mC]) [compound 1721304]” was run?
A: 46 % control

Q: What about the “APOE RNA (% control) Cortex” value (human APOE RNA [1]; 112 days post-dose) of the same substance?
A: 67 % control

Q: And the “APOE RNA (% control) Spinal Cord” value (human APOE RNA [1]; 14 days post-dose)?
A: 45 % control

Q: And the “APOE RNA (% control) Spinal Cord” value (human APOE RNA [1]; 112 days post-dose)?
A: 42 % control

Q: “1778123: modified oligonucleotide complementary to human APOE RNA (eA*e[5mC]eTeTeG*eG*dT*dG[ms]dA[ms]dA*dT*d[5mC]*dT*dT*dT*dA[ms]kTkT*eA*eA; antisense) [compound 1778123]” was tested. Which “APOE RNA (% control) Cortex” value (human APOE RNA [2]) did it give?
A: 49 % control

Q: And the “APOE RNA (% control) Spinal Cord” value (human APOE RNA [2])?
A: 29 % control

Q: What about the “APOE RNA (% control) Cortex” value (human APOE RNA [3]) of the same substance?
A: 37 % control

Q: And the “APOE RNA (% control) Spinal Cord” value (human APOE RNA [3])?
A: 59 % control

Q: What about the “APOE RNA (% UTC) 5 nM” value (human APOE RNA [4]) of the same substance?
A: 79 % UTC

Q: What about the “APOE RNA (% UTC) 13 nM” value (human APOE RNA [4]) of the same substance?
A: 91 % UTC

Q: And the “APOE RNA (% UTC) 33 nM” value (human APOE RNA [4])?
A: 84 % UTC

Q: And the “APOE RNA (% UTC) 82 nM” value (human APOE RNA [4])?
A: 76 % UTC

Q: What about the “APOE RNA (% UTC) 205 nM” value (human APOE RNA [4]) of the same substance?
A: 55 % UTC

Q: What about the “APOE RNA (% UTC) 512 nM” value (human APOE RNA [4]) of the same substance?
A: 51 % UTC

Q: And the “APOE RNA (% UTC) 1,280 nM” value (human APOE RNA [4])?
A: 25 % UTC

Q: And the “APOE RNA (% UTC) 3,200 nM” value (human APOE RNA [4])?
A: 11 % UTC

Q: And the “APOE RNA (% UTC) 8,000 nM” value (human APOE RNA [4])?
A: 6 % UTC

Q: And the “APOE RNA (% UTC) 20,000 nM” value (human APOE RNA [4])?
A: 5 % UTC

Q: What about the IC50 (human APOE RNA [4]) of the same substance?
A: 320 nM

Q: And the “APOE RNA (% control) Cortex” value (human APOE RNA [5])?
A: 54 % control

Q: What about the “APOE RNA (% control) Spinal Cord” value (human APOE RNA [5]) of the same substance?
A: 31 % control

Q: What about the “APOE RNA (% control) Cortex” value (human APOE RNA [6]) of the same substance?
A: 77 % control

Q: And the “APOE RNA (% control) Spinal Cord” value (human APOE RNA [6])?
A: 36 % control

Q: With “1778125: modified oligonucleotide complementary to human APOE RNA (eA*e[5mC]eTeTeGeG*dT*dG[ms]dA[ms]dA*dT*d[5mC]*dT*dT*dT*dA[ms]kTkT*eA*eA; antisense) [compound 1778125]” as the substance, how does the “APOE RNA (% control) Cortex” value (human APOE RNA [2]) read?
A: 59 % control

Q: And the “APOE RNA (% control) Spinal Cord” value (human APOE RNA [2])?
A: 37 % control

Q: And the “APOE RNA (% control) Cortex” value (human APOE RNA [3])?
A: 40 % control

Q: What about the “APOE RNA (% control) Spinal Cord” value (human APOE RNA [3]) of the same substance?
A: 52 % control

Q: And the “APOE RNA (% UTC) 5 nM” value (human APOE RNA [4])?
A: 108 % UTC

Q: And the “APOE RNA (% UTC) 13 nM” value (human APOE RNA [4])?
A: 100 % UTC

Q: And the “APOE RNA (% UTC) 33 nM” value (human APOE RNA [4])?
A: 77 % UTC

Q: And the “APOE RNA (% UTC) 82 nM” value (human APOE RNA [4])?
A: 74 % UTC

Q: What about the “APOE RNA (% UTC) 205 nM” value (human APOE RNA [4]) of the same substance?
A: 63 % UTC

Q: What about the “APOE RNA (% UTC) 512 nM” value (human APOE RNA [4]) of the same substance?
A: 39 % UTC

Q: What about the “APOE RNA (% UTC) 1,280 nM” value (human APOE RNA [4]) of the same substance?
A: 22 % UTC

Q: And the “APOE RNA (% UTC) 3,200 nM” value (human APOE RNA [4])?
A: 17 % UTC

Q: And the “APOE RNA (% UTC) 8,000 nM” value (human APOE RNA [4])?
A: 5 % UTC

Q: What about the “APOE RNA (% UTC) 20,000 nM” value (human APOE RNA [4]) of the same substance?
A: 3 % UTC

Q: And the IC50 (human APOE RNA [4])?
A: 320 nM

Q: And the “APOE RNA (% control) Cortex” value (human APOE RNA [5])?
A: 75 % control

Q: What about the “APOE RNA (% control) Spinal Cord” value (human APOE RNA [5]) of the same substance?
A: 42 % control

Q: And the “APOE RNA (% control) Cortex” value (human APOE RNA [6])?
A: 81 % control

Q: What about the “APOE RNA (% control) Spinal Cord” value (human APOE RNA [6]) of the same substance?
A: 49 % control
